Laboratory results taken from patent publication US20130209581A1, “IODINATED ACTIVATED CHARCOAL FOR TREATING SYMPTOMS OF DEPRESSION” (priority 2010, published 2013).

Columns and labels:
healthy volunteers = conditions: humans, cited from earlier work
[1] = tested on: animals suffering from the effects of iodine toxicity; conditions: animals (chicks) with iodine toxicity; cited from earlier work
[2] = tested on: symptoms caused by depression; experiment: Self-administration of iodinated activated charcoal and its separate components by one patient with long-standing depression symptoms, with daily symptom recording and a Quality of life questionnaire; assay type: in vivo, human; conditions: 90 mg daily in a capsule, after 2 weeks
Experimental: A person, has for some 20 years suffered from many symptoms, including chronic and severe mental fatigue in spite of 12 h sleep per night, psychological burnout, anxiety, lack of concentration, depressive mood, withdrawal from social situations, irritable bowel symptoms with constipation and/or diarrhea, anxiety, heart palpitations, pressure in the chest, reduced stamina and condition and a reduced sex drive. When asked to evaluate their subjective health status using a Quality of life questionnaire with a 1-10 scale where 1 is the worst possible and 10 is absolutely the best, they regularly marked 1 or 2. Their symptoms were interpreted as caused by depression, and they were treated with 5 different types of anti-depressants for a total of 17 years.
Some time ago, they tested the mercury binding substance iodinated activated charcoal (IAC, custom made at PharmaLundensis according to Example 1). They took 1 g per day of IAC for two weeks, and recorded the symptoms they experienced daily, as well as filling in a Quality of life questionnaire. […] They felt better than they had felt for many years.
After these two weeks, they wanted to clarify if the massive improvement in their health was caused by the IAC. […]

Row | SMILES | no-effect level (healthy volunteers; healthy volunteers) | tolerability (healthy volunteers) | effect on symptoms of iodine toxicity [1] | Quality of life score [2] | improvement of symptoms [2]
1 | [Br-].[Na+] [Sodium bromide, sodium bromide] | 4 mg/kg body weight | well tolerated | helps to reverse the symptoms | – | –
2 | II [elemental iodine] | – | – | – | as bad as when they started taking the iodine capsules | no improvements
